Data set [1] in a line: Inhibition of recombinant Mycobacterium tuberculosis MurE expressed in Pseudomonas putida KT2442 using UDPMurNAc-L-Ala-D-Glu as substrate incubated for 30 mins by HPLC analysis.
In data set [2] the test system is Mycobacterium tuberculosis. Nature of the data set: Antimycobacterial activity against Mycobacterium tuberculosis H37Rv ATCC 27294 assessed as inhibition of bacterial growth incubated for 2 weeks by spot culture growth inhibition assay. The class given is functional. Particulars: H37Rv ATCC 27294, 336 h.
Data set [3] in a line: Selectivity index, ratio of IC50 for cytotoxicity against mouse RAW264.7 cells to MIC for antitubercular activity against Mycobacterium tuberculosis H37Rv ATCC 27294. In kind it is toxicity, cell-based. Particulars: for selectivity ratio: RAW264.7 cells, read-out: Selectivity Index.
Data set [4] deals with Mycobacterium tuberculosis. Nature of the data set: Antitubercular activity against Mycobacterium tuberculosis H37Rv ATCC 27294 assessed as bacterial growth inhibition. The class given is functional.
Data set [5] can be described thus: Inhibition of Mycobacterium tuberculosis MurE expressed in Escherichia coli BL21(DE3) cells using UDP-MurNAc-dipeptide as substrate incubated for 30 mins by HPLC analysis.
Data set [6] in a line: Inhibition of recombinant Mycobacterium tuberculosis MurE expressed in Escherichia coli BL21(DE3) cells using UDP-MurNAc-dipeptide as substrate incubated for 30 mins by phosphate release based colorimetric assay. The class given is cell-based.
Data set [7] deals with RAW264.7. The experiment in a line: Cytotoxicity against mouse RAW264.7 cells assessed as cell growth inhibition incubated for 48 hrs by resazurin staining based fluorometric analysis. The class given is functional. Particulars: RAW264.7, 48 h. Background: Resazurin is reduced to fluorescent resorufin, in cell work by metabolically active cells.
The subject of data set [8] is Mycobacterium tuberculosis. The experiment in a line: Inhibition of Mycobacterium tuberculosis MurC at 100 uM relative to control.
Data set [9] concerns Mycobacterium tuberculosis. The experiment in a line: Inhibition of Mycobacterium tuberculosis MurE at 100 uM relative to control.
The test system of data set [10] is Mycobacterium tuberculosis. Nature of the data set: Inhibition of Mycobacterium tuberculosis MurD at 100 uM relative to control.
Data set [11] has as its system Mycobacterium tuberculosis. Nature of the data set: Inhibition of Mycobacterium tuberculosis MurF at 100 uM relative to control.
Data set [12] can be described thus: Inhibition of N-terminal His-tagged Mycobacterium tuberculosis MurE expressed in Escherichia coli BL21 (DE3) cells using UDP-GlcNAc as initial substrate pretreated with compound for 15 mins followed by substrate addition measured after 30 mins in presence of ATP by phosphate release based assay relative to control.
Data set [13] can be described thus: Inhibition of Mycobacterium tuberculosis MBP tagged MurF expressed in Escherichia coli Rosetta-gami (DE3) cells using UDP-GlcNAc as initial substrate pretreated with compound for 15 mins followed by substrate addition measured after 30 mins in presence of ATP by phosphate release based assay relative to control.
Data set [14] deals with Mycobacterium tuberculosis. Nature of the data set: Antitubercular activity against Mycobacterium tuberculosis H37Rv ATCC 27294 assessed as bacterial growth inhibition incubated for 6 days by MTT assay. The class given is functional. Particulars: H37Rv ATCC 27294, 144 h, time 6 day. Background: Formazan colour is commonly taken as a measure of viable cells.
The nature of data set [15]: Inhibition of Mycobacterium tuberculosis MurE expressed in Escherichia coli BL21(DE3) cells by phosphate release based colorimetric assay.
Data set [16] deals with Mycobacterium tuberculosis. The experiment in a line: Inhibition of N-terminal His-tagged Mycobacterium tuberculosis MurC expressed in Escherichia coli BL21 (DE3) cells using UDP-GlcNAc as initial substrate pretreated with compound for 15 mins followed by substrate addition measured after 30 mins in presence of ATP by phosphate release based assay relative to control. Particulars: time 45.0 min.

Data set [17] concerns Mycobacterium tuberculosis. The experiment in a line: Inhibition of N-terminal His-tagged Mycobacterium tuberculosis MurB expressed in Escherichia coli BL21 (DE3) cells using UDP-GlcNAc as initial substrate pretreated with compound for 15 mins followed by substrate addition measured after 30 mins in presence of ATP by phosphate release based assay relative to control. The note with it: time 45.0 min.

For data set [18], the system named is Mycobacterium tuberculosis. The experiment in a line: Inhibition of Mycobacterium tuberculosis MBP tagged MurD expressed in Escherichia coli Rosetta-gami (DE3) cells using UDP-GlcNAc as initial substrate pretreated with compound for 15 mins followed by substrate addition measured after 30 mins in presence of ATP by phosphate release based assay relative to control. Particulars: time 45.0 min.

Data set [19] deals with Mycobacterium tuberculosis. Nature of the data set: Inhibition of N-terminal His-tagged Mycobacterium tuberculosis MurA expressed in Escherichia coli BL21 (DE3) cells using UDP-GlcNAc as initial substrate pretreated with compound for 15 mins followed by substrate addition measured after 30 mins in presence of ATP by phosphate release based assay relative to control. Particulars: time 45.0 min.

For data set [20], the system named is Mycobacterium tuberculosis. The experiment in a line: Antitubercular activity against Mycobacterium tuberculosis H37Rv ATCC 9360 assessed as bacterial growth inhibition incubated for 2 weeks by spot culture growth inhibition assay. In kind it is functional. Particulars: H37Rv ATCC 9360, 336 h.
Data set [21] in a line: Inhibition of Mycobacterium tuberculosis MurE using UDPMurNAc-L-Ala-D-Glu as substrate incubated for 30 mins by phosphate release based colorimetric assay.
Data set [22] has as its system RAW264.7. The experiment in a line: Cytotoxicity against mouse RAW264.7 cells assessed as cell growth inhibition. The class given is functional, cell-based.

≈ marks a conversion by molar mass, not a printed value. Where “and” joins values, the source holds several entries; their conditions need not be identical. Equal entries are not always repeated.

What is called IC50 is the point on the concentration scale where inhibition reaches its midpoint. A word on the MIC: it is the least concentration at which growth counts as inhibited. Take `COc1ccc(Br)c2c1C(c1cccc3c1OCO3)NCC2` (configuration not stated): the IC50 in [1] amounted to 165 µM. For the same compound, in [2], the MIC is 106 µM (≈ 38.4 µg/mL).
For `CCCCCCCCCC/C=C/C1CC(=O)c2ccccc2N1C` (configuration not stated), the selectivity ratio in [3] is 1. Besides, the minimal inhibitory concentration (MIC) in [4] was 30.7 µM (≈ 10.1 µg/mL). For the same compound, the IC50 in data set [5] is 187 µM; in [6], 72 µM; in the data set with RAW264.7 [7], 24 µg/mL (≈ 73.3 µM).
Usually inhibition stands for the change of the read-out against control, counted positive when it falls. For `CC(=O)N[C@H]1[C@H](OCc2cn(C[C@@H]3O[C@H](n4ccc(=O)[nH]c4=O)[C@@H](O)[C@H]3O)nn2)O[C@H](Cn2cc(CO[C@@H]3O[C@H](CO)[C@@H](O)[C@H](O)[C@H]3NC(C)=O)nn2)[C@@H](O)[C@@H]1O`, the inhibition is 1% in [8], 12.5% in data set [9], 5.2% in [10] and 48.9% in data set [11].
Regarding `CCCCCCCC/C=C/C1CC(=O)c2ccccc2N1C` (configuration not stated), the selectivity ratio in [3] is 1. Also, the MIC in data set [4] was found to be 84 µM (≈ 25.2 µg/mL). The figures for the half-maximal inhibitory concentration (IC50) (in data set [5]; in data set [6]; in the data set on RAW264.7 [7]) were 207 µM, 70 µM and 24 µg/mL (≈ 80.1 µM), respectively.
Turning to `COc1c(O)c2c3c(c1OC)CCN[C@H]3Cc1cc3c(cc1-2)OCO3.Cl`, the “Selectivity Index” value in data set [3] is listed as 12. The IC50 in data set [12] came to 61.6 µM; in data set [6] it was 57 µM; in data set [13] it was 45.4 µM; in the data set with RAW264.7 [7] it was 47 µg/mL. Besides, the MIC in [14] was 4 µg/mL.
On to `COc1c(O)c2c3c(c1OC)CCN[C@H]3Cc1cc3c(cc1-2)OCO3` [listing 1 of 2 here], for which, in [3], the “Selectivity Index” value was 0.97. The IC50 in [6] is 67 µM and < 100 µM; in the data set on RAW264.7 [7] it was 62 µg/mL (≈ 182 µM). For the same compound, the MIC in data set [14] worked out at 64 µg/mL (≈ 187 µM).
In the case of `CCCCCCCCCCCC#CCC1CC(=O)c2ccccc2N1CCCC` (configuration not stated), 200 µM corresponded to half-maximal inhibition in data set [15] (IC50).
For the compound `Oc1ccc(Br)c2c1C(Cc1cccc3c1OCO3)NCC2` (configuration not stated), the half-inhibitory concentration (IC50) in data set [1] is under 111 µM.
The same measure, in the same setting: for `Oc1ccc(Br)c2c1C(c1cccc3c1OCO3)NCC2` (configuration not stated) the value was under 111 µM.
As to `COc1c(O)c2c3c(c1OC)CCN[C@H]3Cc1cc3c(cc1-2)OCO3` [listing 2 of 2 here], the inhibition is 66% in data set [16], over 100% in data set [17], 88% in data set [18] and 75% in data set [19].
As to `Oc1ccc(I)c2c1C(Cc1cccc3c1OCO3)NCC2` (configuration not stated), in [1], the IC50 is under 111 µM. In addition, the MIC in data set [2] is 71 µM (≈ 29.1 µg/mL).
Consider `CCCCCCCCC/C=C\CCCC1CC(=O)c2ccccc2N1C` (configuration not stated), for which the selectivity ratio in data set [3] was determined as 1. Besides, the minimal inhibitory concentration (MIC) in [4] came out at 70.7 µM (≈ 25.1 µg/mL). For the same compound, the IC50 in data set [12] is 17 µM; in data set [5] it was 159 µM; in data set [6] it was 52 µM; in [13], 25.8 µM; in the data set on RAW264.7 [7], 24 µg/mL (≈ 67.5 µM). Besides, the inhibition in [16] was 73%; in data set [17] it was over 100%; in data set [18], 85%; in data set [19], over 100%.
Regarding `CC(=O)N[C@H]1[C@H](OCc2cnnn2C[C@H]2O[C@@H](n3ccc(=O)[nH]c3=O)[C@H](O)[C@@H]2O)O[C@H](Cn2cc(C(N)=O)nn2)[C@@H](O)[C@@H]1O`, the inhibition in data set [8] is 12.1%; in data set [9], 6.1%; in data set [10], 23%; in data set [11], 41.8%.
In the case of `COC(=O)N1CCc2c(OC)c(OC)c(O)c3c2[C@@H]1Cc1cc2c(cc1-3)OCO2`, the selectivity ratio in [3] was 0.52. Further, the concentration for half-maximal inhibition (IC50) in data set [6] is 75 µM and < 100 µM; with RAW264.7 [7], 67 µg/mL (≈ 168 µM). For the same compound, the minimum inhibitory concentration (MIC) in data set [14] worked out at 128 µg/mL (≈ 320 µM).
As for `CCCCCCCCCCC/C=C/C1CC(=O)c2ccccc2N1C` (configuration not stated), the selectivity ratio in data set [3] was found to be 1. Further, the MIC in data set [4] worked out at 58.9 µM (≈ 20.1 µg/mL). Further, the IC50 in data set [5] came to 140 µM; in data set [6], 52 µM; in the data set with RAW264.7 [7] it was 24 µg/mL (≈ 70.3 µM).
Taken in the same sequence, the figures for `CCCCCCCC/C=C\CCCCC1CC(=O)c2ccccc2N1C` (configuration not stated) were 1, 28.3 µM (≈ 10.1 µg/mL), 95 µM, 36 µM and 24 µg/mL (≈ 67.5 µM).
Regarding `C=CC(C)(C)C1C(=O)CC(c2ccccc2)OC1OC` (configuration not stated), in data set [20], the MIC amounted to 75 µg/mL (≈ 273 µM). In addition, inhibition in data set [21] was half-maximal at 320 µM (IC50).
In turn, `CCCCCCCCCC#CCC1CC(=O)c2ccccc2N1CCCC` (configuration not stated) returned an IC50 in [15] of 235 µM.
Turning to `COc1c(O)c2c3c(c1OC)CCNC3Cc1cc3c(cc1-2)OCO3` (configuration not stated), the results for the IC50 (in data set [1]; in the data set on RAW264.7 [22]) were 820 µM and 352 µM, respectively. Further, in data set [2], the MIC is 84 µM (≈ 28.7 µg/mL).
Take `NNC(=O)c1ccncc1` [ISONIAZID]: the concentration for half-maximal inhibition (IC50) in [1] and in [6] was over 1000 µM each time.

These data come from ChEMBL document CHEMBL5096189, “The Mur Enzymes Chink in the Armour of Mycobacterium tuberculosis cell wall” (Eur J Med Chem, 2021).
